Tested on: KRAS patient-derived spheroids with HUVEC/MSC, viability
Experiment: Anticancer human tumor 519858-162-T-J1-PDC patient-derived colon adenocarcinoma cell line growth inhibition [KRAS2]
Conditions: for IC50: curve of first compound; for viability, T/C: stronger effect = lower value
Outline: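 KRAS-mutant tumor cells were grown as spheroids with HUVEC endothelial cells and human MSCs as stroma. Targeted agents were tested alone and with KRAS pathway inhibitors. Doses started at or near clinical Cmax, or 10 microM, descending half-log.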

[1] = second compound 0.1 µM, first compound 0.00316 µM
[2] = second compound 0.1 µM, first compound 0.01 µM
[3] = second compound 0.1 µM, first compound 0.0316 µM
[4] = second compound 0.1 µM, first compound 0.1 µM
[5] = second compound 0.1 µM, first compound 0.316 µM
[6] = second compound 0.1 µM, first compound 1 µM
[7] = second compound 0.316 µM, first compound 0.00316 µM
[8] = second compound 0.316 µM, first compound 0.01 µM
[9] = second compound 0.316 µM, first compound 0.0316 µM
[10] = second compound 0.316 µM, first compound 0.1 µM
[11] = second compound 0.316 µM, first compound 0.316 µM
[12] = second compound 0.316 µM, first compound 1 µM
[13] = second compound 1 µM, first compound 0.00316 µM
[14] = second compound 1 µM, first compound 0.01 µM
[15] = second compound 1 µM, first compound 0.0316 µM
[16] = second compound 1 µM, first compound 0.1 µM
[17] = second compound 1 µM, first compound 0.316 µM
[18] = second compound 1 µM, first compound 1 µM
[19] = second compound 3.16 µM, first compound 0.00316 µM
[20] = second compound 3.16 µM, first compound 0.01 µM
[21] = second compound 3.16 µM, first compound 0.0316 µM
[22] = second compound 3.16 µM, first compound 0.1 µM
[23] = second compound 3.16 µM, first compound 0.316 µM
[24] = second compound 3.16 µM, first compound 1 µM
[25] = second compound 10 µM, first compound 0.00316 µM
[26] = second compound 10 µM, first compound 0.01 µM
[27] = second compound 10 µM, first compound 0.0316 µM
[28] = second compound 10 µM, first compound 0.1 µM
[29] = second compound 10 µM, first compound 0.316 µM
[30] = second compound 10 µM, first compound 1 µM
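Note: compound exposure lasted seven days before readout.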
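Throughout, for viability, T/C: 100% = DMSO vehicle control viability.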

Compound | IC50 (second compound 0.1 µM) [nM] | IC50 (second compound 0.316 µM) [nM] | IC50 (second compound 1 µM) [nM] | IC50 (second compound 3.16 µM) [nM] | IC50 (second compound 10 µM) [nM] | viability, T/C [1] [%] | viability, T/C [2] [%] | viability, T/C [3] [%] | viability, T/C [4] [%] | viability, T/C [5] [%] | viability, T/C [6] [%] | viability, T/C [7] [%] | viability, T/C [9] [%] | viability, T/C [10] [%] | viability, T/C [15] [%] | viability, T/C [16] [%] | viability, T/C [21] [%] | viability, T/C [22] [%] | viability, T/C [27] [%] | viability, T/C [28] [%] | other results
CCN1CCN(Cc2ccc(Nc3ncc(F)c(-c4cc(F)c5nc(C)n(C(C)C)c5c4)n3)nc2)CC1 + CNCc1ccccc1-c1csc(C(C)Nc2nc(C)nc3cc(OC)c(OC)cc23)c1 | 640 | 178 | 207 | 22.4 | < 3.16 | 86 | 67.9 | 88.8 | 82 | 61.4 | 42.8 | 98.1 | 51.9 | 60.9 | 59.6 | 59.2 | 47.3 | 16.2 | 0.75 | 0.26 | viability, T/C [8]: 76.4%; viability, T/C [11]: 48.1%; viability, T/C [12]: 42.9%; viability, T/C [13]: 79%; viability, T/C [14]: 61.4%; viability, T/C [17]: 49.3%; viability, T/C [18]: 21.2%; viability, T/C [19]: 56.3%; viability, T/C [20]: 56.5%; viability, T/C [23]: 31.1%; viability, T/C [24]: 29.7%; viability, T/C [25]: 0.31%; viability, T/C [26]: 0.24%; viability, T/C [29]: 0.21%; viability, T/C [30]: 2.71%
COc1cc2nccc(Oc3ccc(NC(=O)C4(C(=O)Nc5ccc(F)cc5)CC4)cc3)c2cc1OC + CNCc1ccccc1-c1csc(C(C)Nc2nc(C)nc3cc(OC)c(OC)cc23)c1 | > 10000 | > 10000 | > 10000 | 3460 | < 31.6 |  |  | 92.8 | 93.2 | 81.7 | 94 |  | 91.4 | 96.5 | 67.1 | 81.8 | 39.9 | 55.6 | 1.01 | 0.42 | viability, T/C (second compound 0.1 µM, first compound 3.16 µM): 107%; viability, T/C (second compound 0.1 µM, first compound 10 µM): 146%; viability, T/C [11]: 88%; viability, T/C [12]: 90.1%; viability, T/C (second compound 0.316 µM, first compound 3.16 µM): 98.1%; viability, T/C (second compound 0.316 µM, first compound 10 µM): 132%; viability, T/C [17]: 61.6%; viability, T/C [18]: 50.1%; viability, T/C (second compound 1 µM, first compound 3.16 µM): 106%; viability, T/C (second compound 1 µM, first compound 10 µM): 100%; viability, T/C [23]: 44.5%; viability, T/C [24]: 38.1%; viability, T/C (second compound 3.16 µM, first compound 3.16 µM): 95%; viability, T/C (second compound 3.16 µM, first compound 10 µM): 0.54%; viability, T/C [29]: 0.68%; viability, T/C [30]: 1.44%; viability, T/C (second compound 10 µM, first compound 3.16 µM): 0.37%; viability, T/C (second compound 10 µM, first compound 10 µM): 0.36%
Cn1ncnc1[C@H]1c2n[nH]c(=O)c3cc(F)cc(c23)N[C@@H]1c1ccc(F)cc1 + CNCc1ccccc1-c1csc(C(C)Nc2nc(C)nc3cc(OC)c(OC)cc23)c1 | > 100 | > 100 | > 100 | 71.1 | < 0.316 | 96.5 | 71.5 | 95.4 | 98.6 |  |  | 101 | 103 | 89.7 | 78.3 | 102 | 54.2 | 48.3 | 0.36 | 0.51 | viability, T/C (second compound 0.1 µM, first compound 0.000316 µM): 82.2%; viability, T/C (second compound 0.1 µM, first compound 0.001 µM): 95.5%; viability, T/C (second compound 0.316 µM, first compound 0.000316 µM): 86.3%; viability, T/C (second compound 0.316 µM, first compound 0.001 µM): 94.7%; viability, T/C [8]: 112%; viability, T/C (second compound 1 µM, first compound 0.000316 µM): 72%; viability, T/C (second compound 1 µM, first compound 0.001 µM): 98.8%; viability, T/C [13]: 97.7%; viability, T/C [14]: 63.9%; viability, T/C (second compound 3.16 µM, first compound 0.000316 µM): 49.7%; viability, T/C (second compound 3.16 µM, first compound 0.001 µM): 58.7%; viability, T/C [19]: 73.8%; viability, T/C [20]: 56.7%; viability, T/C (second compound 10 µM, first compound 0.000316 µM): 0.66%; viability, T/C (second compound 10 µM, first compound 0.001 µM): 0.41%; viability, T/C [25]: 0.4%; viability, T/C [26]: 1.18%
